According to BindingDB's records for doi:10.1073/pnas.95.18.10836 (Merck Research Laboratories, 1998):

Experiments:
[1] = target: Somatostatin receptor type 1 (Homo sapiens, UniProt P30872)
[2] = target: Somatostatin receptor type 5 (Homo sapiens, UniProt P35346)
[3] = target: Somatostatin receptor type 3 (Homo sapiens, UniProt P32745)
[4] = target: Somatostatin receptor type 2 (Homo sapiens, UniProt P30874)
[5] = target: Somatostatin receptor type 4 (Homo sapiens, UniProt P31391)
Somatostatin receptor type 4, sequence (P31391 whole entry): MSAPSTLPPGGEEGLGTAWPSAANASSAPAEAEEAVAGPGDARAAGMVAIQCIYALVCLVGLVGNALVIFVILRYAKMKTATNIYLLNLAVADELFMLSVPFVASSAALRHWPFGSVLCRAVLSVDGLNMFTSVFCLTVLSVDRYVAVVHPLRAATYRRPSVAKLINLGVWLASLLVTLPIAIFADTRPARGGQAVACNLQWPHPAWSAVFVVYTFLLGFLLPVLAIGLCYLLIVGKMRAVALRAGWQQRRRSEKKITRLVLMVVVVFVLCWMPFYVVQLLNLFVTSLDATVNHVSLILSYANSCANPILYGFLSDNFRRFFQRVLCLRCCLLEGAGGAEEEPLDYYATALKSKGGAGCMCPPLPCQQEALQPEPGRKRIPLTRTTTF

Somatostatin receptor type 3, sequence (P32745 whole entry): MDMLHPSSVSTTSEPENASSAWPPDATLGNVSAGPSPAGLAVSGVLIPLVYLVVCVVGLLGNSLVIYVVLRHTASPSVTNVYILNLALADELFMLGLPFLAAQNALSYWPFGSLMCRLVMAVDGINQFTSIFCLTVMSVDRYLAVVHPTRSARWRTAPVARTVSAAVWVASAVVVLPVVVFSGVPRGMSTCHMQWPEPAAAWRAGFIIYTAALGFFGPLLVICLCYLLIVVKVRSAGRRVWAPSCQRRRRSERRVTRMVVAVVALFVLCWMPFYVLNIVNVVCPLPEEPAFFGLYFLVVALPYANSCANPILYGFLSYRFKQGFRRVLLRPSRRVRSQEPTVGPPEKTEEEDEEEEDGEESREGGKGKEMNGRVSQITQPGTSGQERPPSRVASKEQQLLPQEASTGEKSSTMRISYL
Somatostatin receptor type 5, sequence (P35346 whole entry): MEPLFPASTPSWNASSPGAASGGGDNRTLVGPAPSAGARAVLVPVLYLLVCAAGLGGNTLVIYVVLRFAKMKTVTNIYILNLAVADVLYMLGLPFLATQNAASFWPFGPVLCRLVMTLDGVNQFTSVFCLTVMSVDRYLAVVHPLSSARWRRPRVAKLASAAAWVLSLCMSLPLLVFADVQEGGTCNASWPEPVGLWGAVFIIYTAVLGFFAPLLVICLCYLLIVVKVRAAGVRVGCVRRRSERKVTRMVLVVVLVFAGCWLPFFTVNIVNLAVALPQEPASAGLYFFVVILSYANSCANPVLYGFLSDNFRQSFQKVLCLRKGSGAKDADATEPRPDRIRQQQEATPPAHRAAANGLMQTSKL
Somatostatin receptor type 2, sequence (P30874 whole entry): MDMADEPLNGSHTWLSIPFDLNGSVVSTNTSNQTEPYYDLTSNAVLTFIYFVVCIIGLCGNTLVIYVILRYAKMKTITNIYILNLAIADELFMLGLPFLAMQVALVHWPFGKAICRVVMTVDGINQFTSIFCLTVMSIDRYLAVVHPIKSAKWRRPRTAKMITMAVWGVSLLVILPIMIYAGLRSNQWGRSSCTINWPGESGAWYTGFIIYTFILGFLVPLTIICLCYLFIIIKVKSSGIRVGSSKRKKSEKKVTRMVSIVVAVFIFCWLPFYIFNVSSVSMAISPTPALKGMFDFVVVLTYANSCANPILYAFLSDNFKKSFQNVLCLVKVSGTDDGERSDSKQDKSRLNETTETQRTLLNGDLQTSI
Somatostatin receptor type 1, sequence (P30872 whole entry): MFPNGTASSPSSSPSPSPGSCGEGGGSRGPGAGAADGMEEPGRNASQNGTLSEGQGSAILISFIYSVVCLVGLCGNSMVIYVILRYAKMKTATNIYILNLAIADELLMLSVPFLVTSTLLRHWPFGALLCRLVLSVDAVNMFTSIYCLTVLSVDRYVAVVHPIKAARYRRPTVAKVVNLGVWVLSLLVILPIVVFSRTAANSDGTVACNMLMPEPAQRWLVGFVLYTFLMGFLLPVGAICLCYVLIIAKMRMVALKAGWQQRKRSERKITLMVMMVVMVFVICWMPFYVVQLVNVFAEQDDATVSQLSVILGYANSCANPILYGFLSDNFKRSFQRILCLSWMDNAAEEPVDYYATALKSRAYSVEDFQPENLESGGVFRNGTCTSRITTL

Structure (SMILES)	Ki [1] [nM]	Ki [2] [nM]	Ki [3] [nM]	Ki [4] [nM]	Ki [5] [nM]
CC(C)[C@@H]1NC(=O)[C@H](CCCCN)NC(=O)[C@@H](Cc2c[nH]c3ccccc23)NC(=O)[C@H](Cc2ccc(O)cc2)NC(=O)[C@H](C)N(C)C(=O)[C@H](Cc2ccccc2)NC1=O [CAS_3086456]	> 10000	232	230		
CC(O)[C@H]1NC(=O)[C@@H](Cc2ccccc2)NC(=O)[C@H]2CCCN2C(=O)[C@H](Cc2ccc(O)cc2)NC(=O)[C@@H](Cc2c[nH]c3ccccc23)NC(=O)[C@@H](CCCCN)NC1=O (stereo partly drawn) [(5S,8R,11R,14R,17R,19aR)-11-(4-Amino-butyl)-17-benzyl-5-(4-hydroxy-benzyl)-14-(1-hydroxy-ethyl)-8-(1H-indol-3-ylmethyl)-tetradecahydro-3a,6,9,12,15,18-hexaaza-cyclopentacyclooctadecene-4,7,10,13,16,19-hexaone]	5660	2010	3070	0.49	> 10000
C[C@@H](c1c[nH]c2ccccc12)[C@@H](NC(=O)N1CCC(n2c(=O)[nH]c3ccccc32)CC1)C(=O)NC(CCCCN)C(=O)OC(C)(C)C (stereo partly drawn) [2-[[(2R,3S)-2-[[4-[(2-Oxo-2,3-dihydro-1H-benzimidazole)-1-yl]piperidino]carbonylamino]-3-(1H-indole-3-yl)butyryl]amino]-6-aminohexanoic acid tert-butyl ester]		163	31	0.01	81
